{"source": "patent US7781407B2", "about": "“Calcium gluconolactate compositions and methods of making same” (priority 2002, dated 2010)", "assay": "Apparent and compacted bulk density (mass/volume, meshes 30, 80, 100)", "assay_type": "physicochemical", "description": "2.—Apparent and compacted bulk density; for the test calcium gluconolactonate, from formula III, was classified in 3 different types of mesh 30, 80, and 100 to determine its apparent density. The same procedure was used to determine compacted bulk density. The compound was classified in the same 30, 80, and 100 meshes, determining its density, in both cases, in grams per milliliter, as shown in table II below:\nThe average density corresponds to a 30 mesh, for the most common form of the product. A table is attached with different tests performed to determine the average apparent and compacted bulk density, resulting, in the first case, in a[n apparent] density of 0.690 and a compacted bulk density of 0.883, as shown in table III below: […]", "key": {"[1]": {"conditions": "30 mesh, average of tests 1 to 31"}}}
{"smiles": "CC(O)C(=O)[O-].O=C([O-])[C@H](O)[C@@H](O)[C@H](O)[C@H](O)CO.[Ca+2]", "note": "[calcium gluconolactate]", "values": [{"measurement": "Apparent Density (30 mesh)", "setting": "30 mesh, Mass/Volume", "result": 0.690, "unit": "g/mL"}, {"measurement": "Compacted Bulk Density (30 mesh)", "setting": "30 mesh, Mass/Volume", "result": 0.883, "unit": "g/mL"}, {"measurement": "Apparent density, average", "setting": "[1]", "result": 0.690}, {"measurement": "Compacted Bulk density, average", "setting": "[1]", "result": 0.883}, {"measurement": "Apparent Density (80 mesh)", "setting": "80 mesh, Mass/Volume", "result": 0.655, "unit": "g/mL"}, {"measurement": "Compacted Bulk Density (80 mesh)", "setting": "80 mesh, Mass/Volume", "result": 0.904, "unit": "g/mL"}, {"measurement": "Apparent Density (100 mesh)", "setting": "100 mesh, Mass/Volume", "result": 0.609, "unit": "g/mL"}, {"measurement": "Compacted Bulk Density (100 mesh)", "setting": "100 mesh, Mass/Volume", "result": 0.874, "unit": "g/mL"}]}
